Where two headings read alike, the source gives them in different places.
What was measured:
[1] = system: Cryptococcus neoformans ATCC 90113; assay: Antimicrobial microdilution assay against Cryptococcus neoformans (modified CLSI/NCCLS, optical density); type: cell-based; details: for X more potent than Amphotericin B: C. neoformans, ratio of molar IC50 to Amphotericin B; for C. neoformans IC50 / IC50: in vitro, C. neoformans ATCC 90113
Outline: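 Fungicidal endpoint taken by subculturing 5 μL from each clear well onto agar, MFC being the lowest concentration with no regrowth. Duplicate wells of serially diluted compound (20% DMSO/saline) in RPMI pH 6.0, read at 630 nm pre- and post-incubation, under modified CLSI methods. IC50 means 50% growth inhibition against controls.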

[2] = system: L. donovani promastigotes; assay: Antileishmanial Alamar Blue assay on promastigotes; type: cell-based, Leishmania donovani; details: for X more potent than Pentamidine: L. donovani, ratio of molar IC50 to Pentamidine
Outline: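 Alamar Blue fluorescence (544/590 nm) quantified growth after 48 hours at 26° C of compound-treated promastigotes. Parasites were seeded at 5×10^5/mL in RPMI 1640 plus 10% FCS; drug range 50-3.1 μg/mL, and IC50 derived by plotting percent growth against test concentration.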

C. krusei ATCC 6258 = assay: Antifungal broth dilution assay against C. krusei (modified CLSI); type: cell-based, Candida krusei; details: for X more potent than Amphotericin B: C. krusei, ratio of molar IC50 to amphotericin B; for C. krusei IC50 / IC50: in vitro
Protocol: (§1) General Experimental Procedures. All organisms were obtained from the American Type Culture Collection (Manassas, VA) and include the fungi Candida albicans ATCC 90028, C. glabrata ATCC 90030, C. krusei ATCC 6258, and Cryptococcus neoformans ATCC 90113, and the bacteria Staphylococcus aureus ATCC 29213 and methicillin-resistant S. aureus ATCC 33591 (MRS). All organisms were tested using modified versions of the CLSI (formerly NCCLS) methods. For all organisms, optical density was used to monitor growth (NCCLS, Reference Method for Broth Dilution Antifungal Susceptibility Testing of Yeasts; Approved Standard M27-A2. National Committee on Clinical Laboratory Standards, 2002 22 (15); and NCCLS, Methods for Dilution Antimicrobial Susceptibility Tests for Bacteria that Grow Aerobically; Approved Standard, Seventh Edition M7-A7. National Committee on Clinical Laboratory Standards, 2006. 26(2)).
(§2) Samples (dissolved in DMSO) were serially-diluted in 20% DMSO/saline and transferred (10 μL) in duplicate to 96 well flat bottom microplates. Inocula were prepared by correcting the OD630 of microbe suspensions in incubation broth [RPMI 1640/0.2% dextrose/0.03% glutamine/MOPS @ pH 6.0 (Cellgro) for Candida spp., Sabouraud Dextrose for C. neoformans, and cation-adjusted Mueller-Hinton (Difco) @ pH 7.3 for Staphylococcus spp. to afford an assay volume of […] and final target inocula of: Candida spp. and C. neoformans: 1.5×10^3, and Staphylococcus spp.: 5.0×10^5 CFU/ml. Final sample test concentrations were 1/100th the DMSO stock concentration. […] All organisms were read at either 530 nm using the Biotek Powerwave XS plate reader (Bio-Tek Instruments, Vermont) prior to and after incubation: Candida spp. at 35° C. for 46-50 h, Staphylococcus spp. at 35° C. for 16-20 h, and C. neoformans at 35° C. for 70-74 h. IC50s (concentrations that afford 50% inhibition relative to controls) were calculated using XLfit 4.2 software (IDBS, Alameda, CA) using fit model 201. The MIC is defined as the lowest test concentration that allows no detectable growth. Minimum fungicidal or bactericidal concentrations were determined by removing 5 μl from each clear (or blue) well, transferring to fresh media, and incubating as previously mentioned. The MFC/MBC is defined as the lowest test concentration that kills the organism (allows no growth).
(§3) Primary Analysis. Samples were tested in duplicate at one test concentration (50 μg/mL), and percent inhibitions were calculated relative to blank and growth controls. Samples showing 50% inhibition in at least one test organism were selected for dose response (Secondary) studies.
(§4) Secondary Analysis. Extracts from the Primary Assay, and first-run pure compounds and column fractions were tested in duplicate at 3 test concentrations (5-fold dilutions). Samples dissolved to 20 mg/mL in DMSO were tested at 200, 40, and 8 μg/mL. Samples dissolved to 2 mg/mL in DMSO were tested at 20, 4, and 0.8 μg/mL.

[3] = system: Staphylococcus aureus ATCC 29213; assay: Antibacterial broth dilution assay against S. aureus (modified CLSI); type: cell-based; details: for S. aureus IC50 / IC50: in vitro; for IC50: converted with molecular weight; for X more potent than ciprofloxacen: molar IC50 ratio versus ciprofloxacen
Protocol: as §1, §2, §3, §4

[4] = system: methicillin-resistant S. aureus ATCC 33591 (MRS); assay: Antibacterial broth dilution assay against MRSA (modified CLSI); type: cell-based, Staphylococcus aureus; details: for MRSa IC50 / IC50: in vitro; for X more potent than ciprofloxacen: molar IC50 ratio versus ciprofloxacen; for IC50: converted with molecular weight
Protocol: as §1, §2, §3, §4

C. glabrata ATCC 90030 = assay: Antifungal broth dilution assay against C. glabrata (modified CLSI); type: cell-based, Candida glabrata; details: for X more potent than Amphotericin B: molar IC50 ratio versus amphotericin B
Outline: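 Growth read by optical density at 530 nm, duplicate wells, 1% final DMSO. Staphylococcus spp.: Mueller-Hinton pH 7.3, 5.0×10^5 CFU/ml, 35 °C for 16-20 h; Candida spp.: RPMI/dextrose/glutamine/MOPS pH 6.0, 1.5×10^3 CFU/ml, 35 °C for 46-50 h. Reported values are 50% inhibition versus controls, no-growth MIC, and killing MFC/MBC.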

[5] = read-out: C. neoformans IC50 (mol/L)
[6] = promastigotes, 48 hours, Alamar Blue
[7] = promastigotes, 48 hours, Alamar Blue, read-out: L. donavani IC50
[8] = read-out: C. krusei IC50 (mol/L)
[9] = in vitro, converted with molecular weight

Compound | X more potent than Amphotericin B [1] | C. neoformans IC50 [1] | IC50 [1, 5] | X more potent than Pentamidine [2] | L. donovani IC50 [2, 6] | IC50 [2, 7] | X more potent than Amphotericin B (C. krusei ATCC 6258) | C. krusei IC50 (C. krusei ATCC 6258) | IC50 (C. krusei ATCC 6258; [8]) | S. aureus IC50 [3] | IC50 [3] | X more potent than ciprofloxacen [3] | MRSa IC50 [4] | X more potent than ciprofloxacen [4] | C. glabrata IC50 (C. glabrata ATCC 90030; in vitro) | IC50 (C. glabrata ATCC 90030; [9]) | X more potent than Amphotericin B (C. glabrata ATCC 90030) | also measured
Clc1cc(CN2CCNCCN3CCN(CC3)CC2)cc(Cl)n1 [OB99, (dcp)1-SB-cyclen] | 0.28 | 0.310 µg/mL | 0.865 µM | 0.09 | 20.87 µg/mL | 58.2 µM | 0.09 | 5.660 µg/mL | 15.8 µM | 7.520 µg/mL | 21 µM | 0.01 |  |  |  |  |  | 
CC(=O)[O-].F[P-](F)(F)(F)(F)F.[Zn+2].c1ccc(CN2CCCN3CCCN(CCCN(Cc4ccccc4)CC3)CC2)cc1 [DJD23, [Zn(Bn2PBCyclam)(OAc)]PF6] | 0.08 | 1.990 µg/mL |  | 0.85 | 4.32 µg/mL |  |  |  |  | 6.530 µg/mL |  | 0.03 | 3.210 µg/mL | 0.05 |  |  |  | 
O=[N+]([O-])[O-].O=[N+]([O-])[O-].O=[N+]([O-])[O-].O=[N+]([O-])[O-].O=[N+]([O-])c1ccc(CC2CNCCN(Cc3ccc(CN4CCCN5CCN(CCCNCC4)CC5)cc3)CCCN3CCN(CC3)C2)cc1.[Ni+2].[Ni+2] (centres unmarked) [SJA236, [Ni2(bis-SB-C-Ar-NO2)(NO3)4]] | 0.34 | 0.740 µg/mL | 0.701 µM | 0.23 | 24.85 µg/mL | 23.6 µM | 0.26 | 6.030 µg/mL | 5.71 µM |  |  |  |  |  | 5.750 µg/mL | 5.45 µM | 0.26 | 
[Mn2(m-cyclam-homocyclen)][MnCl4]2•12H2O [AW047] | 0.08 | 3.770 µg/mL | 2.93 µM |  |  |  |  |  |  | 5.380 µg/mL | 4.18 µM | 0.07 | 7.850 µg/mL | 0.03 |  |  |  | IC50 [4]: 6.09 µM
[Co2(m-cyclam-homocyclen)(OAc)2][PF6]2 [AW049] | 1.67 | 0.156 µg/mL | 0.143 µM | 0.34 | 16.93 µg/mL | 15.5 µM | 0.25 | 6.520 µg/mL | 5.96 µM | 5.600 µg/mL | 5.12 µM | 0.05 |  |  | 1.217 µg/mL | 1.11 µM | 1.28 | 
CC(=O)[O-].F[P-](F)(F)(F)(F)F.[Ni+2].c1ccc(CN2CCN3CCCN(CC2)CCN(Cc2ccccc2)CC3)cc1 [AW039, [Ni(Bn2PBCyclen)(C2H3O2)]PF6] | 0.02 | 7.640 µg/mL | 11.7 µM | 0.14 | 24.41 µg/mL | 37.2 µM | 0.17 | 5.610 µg/mL | 8.56 µM | 4.73 µg/mL | 7.22 µM | 0.04 |  |  | 5.030 µg/mL | 7.68 µM | 0.18 | 
[Br-].[Br-].c1cc(C[N+]23CCCN(CCN4CCCN(CC2)C4)C3)ccc1C[N+]12CCCN(CCN3CCCN(CC1)C3)C2 [SLK17A, [p-(BMBCyclams)]Br2] | 0.02 | 8.250 µg/mL | 11.6 µM | 0.23 | 16.69 µg/mL | 23.4 µM | 1.21 | 0.880 µg/mL | 1.24 µM |  |  |  |  |  | 1.317 µg/mL | 1.85 µM | 0.77 | 
c1ccc(CN2CCN3CCN(CC2)CCN(Cc2ccccc2)CC3)cc1 [ANCl4] |  |  |  |  |  |  |  |  |  | 8.810 µg/mL | 23.3 µM | 0.01 | 8.570 µg/mL | 0.01 |  |  |  | IC50 [4]: 22.6 µM
c1c(CN2CCCN3CCN(CCCNCC2)CC3)cc(CN2CCCN3CCN(CCCNCC2)CC3)cc1CN1CCCN2CCN(CCCNCC1)CC2 [CDG19, tris-SB-cyclams] | 1.05 |  |  | 0.27 |  |  | 0.25 |  |  |  |  |  |  |  |  |  | 0.11 | IC50 ([1]; Cryptococcus neoformans, ATCC90113, read-out: C. neoformans IC50 (mol/L)): 0.227 µM; IC50 ([1]; Cryptococcus neoformans, ATCC90113, read-out: C. neoformans IC50 (μg/mL)): 0.18 µg/mL; IC50 ([2]; Leishmania donovani, 48 h, read-out: L. donavani IC50 (mol/L)): 20.1 µM; IC50 ([2]; Leishmania donovani, promastigotes, 48 hours, Alamar Blue, read-out: L. donovani IC50): 15.9 µg/mL; IC50 (C. krusei ATCC 6258; Pichia kudriavzevii, ATCC6258, read-out: C. krusei IC50 (mol/L)): 6.04 µM; IC50 (C. krusei ATCC 6258; Pichia kudriavzevii, ATCC6258, read-out: C. krusei IC50 (μg/mL)): 4.79 µg/mL; IC50 (C. glabrata ATCC 90030; Nakaseomyces glabratus, ATCC90030, in vitro): 9.8 µg/mL; IC50 (C. glabrata ATCC 90030; Nakaseomyces glabratus, ATCC90030, in vitro, converted with molecular weight): 12.3 µM
